Assay results taken from patent publication US12161114B2, “Overpowered ABA receptor agonists” (The Regents of the University of California, priority 2018, dated 2024).

Assays:
PYL2 = biological target: T1, PYL2 (Arabidopsis thaliana, UniProt O80992); experiment: receptor-mediated PP2C inhibition assay, pnPP substrate, PYL2; assay type: biochemical
T1 construct: 6xHis; made in house
T1 sequence (O80992 1-190): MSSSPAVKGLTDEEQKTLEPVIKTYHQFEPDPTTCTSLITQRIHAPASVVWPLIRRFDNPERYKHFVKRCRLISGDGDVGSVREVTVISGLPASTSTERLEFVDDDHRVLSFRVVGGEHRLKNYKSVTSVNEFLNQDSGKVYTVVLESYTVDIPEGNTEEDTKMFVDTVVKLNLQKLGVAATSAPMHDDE
T1 sequence (Q9CAJ0 180-511 partner): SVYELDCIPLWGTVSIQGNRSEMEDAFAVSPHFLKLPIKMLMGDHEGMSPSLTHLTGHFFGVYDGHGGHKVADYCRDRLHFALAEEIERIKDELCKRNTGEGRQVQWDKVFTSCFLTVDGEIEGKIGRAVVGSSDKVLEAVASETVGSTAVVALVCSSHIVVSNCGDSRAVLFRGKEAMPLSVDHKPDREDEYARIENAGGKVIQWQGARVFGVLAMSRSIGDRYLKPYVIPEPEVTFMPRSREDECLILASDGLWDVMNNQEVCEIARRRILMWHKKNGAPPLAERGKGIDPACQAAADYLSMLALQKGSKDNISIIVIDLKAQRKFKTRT
Method: The potency and selectivity of ligand 10H4, a relatively potent member of scaffold 2, was characterized in separate experiments using an absorbance-based assay using the colorimetric substrate p-nitrophenyl phosphate (pNPP), as follows. Purified proteins (100 nM receptor, 50 nM HAB1) were pre-incubated in 160 μl assay buffer containing (100 mM Tris-HCl-pH7.9, 100 mM NaCl, 0.3 μg/mL BSA, 0.1% 2-mercaptoethanol, and 1 mM MnCl2) with ligands for 30 minutes at room temperature. Reactions were started by adding 40 μL of 25 mM p-NPP in assay buffer after which absorbance measurements were immediately collected at 405 nm on Tecan plate reader. The concentrations tested spanned 4 nM to 10 μM and the dose response data obtained was fit to a log (inhibitor) vs response-(variable slope) model using non-linear regression to infer the IC50S, using GraphPad Prism, to yield the IC50 values shown in FIG. 7.
8, no. 1, October 2017, p. 1183. • Daszkowska-Golec, Agata. […]

[1] = tested on: pyr1/pyl1, pyl8/pyl9 and abi1C mutants; experiment: seed germination on receptor mutants and ABA signalling mutant abi1C; assay type: in vivo, Arabidopsis; details: tested at twice the EC50
Method: (§1) Prior to selecting a scaffold for optimization we conducted Arabidopsis seed germination assays to establish if the hits obtained are activity in vivo. Germination experiments were performed with surface sterilized wild type Columbia Arabidopsis thaliana seeds and abi1C (the abi1-1 allele isolated in the Columbia ecotype) plated onto 0.7% agar medium containing 1/2-x MS salts, 0.5% sucrose and differing concentrations of the test compounds. After 4d of stratification at 4° C., the plates were transferred to a growth chamber under continuous illumination and evaluated after 4 days.
Methods similar to example 3 were followed.

[2] = tested on: pooled ABA receptors (PYL1, PYL2, PYL4, PYL8, and maize receptor ZmPYLe) with PP2C HAB1; experiment: pooled receptor activation assay (receptor/ligand-mediated inhibition of PP2C HAB1, 4-methylumbelliferyl phosphate); assay type: biochemical, Arabidopsis; maize; details: tested in duplicate at 20 μM
Excerpt: The angiosperm ABA receptor family is large and contains many receptors that cluster into 3 subfamilies. Multiple analyses have shown that agonists of subfamily III receptors are particularly efficacious as antitranspirants, however pan agonists or other new selective agonists may be valuable for crop enhancement. In principle, a docking hit molecule might interact with any or all ABA receptors, creating a large matrix of possible interactions and screening conditions. To expedite the process of screening for new ABA agonists, we developed a pooled receptor screening assay. To do this we selected phylogenetically diverse ABA receptors (PYL1, PYL2, PYL4, PYL8, and maize receptor ZmPYLe), pooled them, and assayed receptor/ligand-mediated inhibition of the PP2C HAB1. The Arabidopsis receptors and PP2C ΔN-HAB1 used were expressed and purified using previously described expression clones and methods (Okamoto et al.) PYL1, PYL2, PYL4, and PYL8 were expressed as 6×-His tags in pET28; ΔN-HAB1 was expressed as 6×-His tag as a truncated form lacking residues 1-179 in pETM-11. ZmPylE (GRMZM2G165567; ZmPYL8 in (He et al.)) was expressed as an MBP fusion protein in pMal-c and expressed and purified as described previously for PYL9 and PYL1 in reference (Okamoto et al.). Assays were conducted in a buffer containing 100 mM Tris-HCl-pH7.9, 100 mM NaCl, 30 μg/ml BSA, 0.1% 2-mercaptoethanol, 100 nM PYL1 and PYL2, 900 nM PYL4 and PYL8, 200 nM ZmPylE, 1 mM 4-methylumbelliferyl phosphate, and 20 μM test compound. The substrate was added ˜20 minutes after the other components had been mixed and fluorescence data collected after substrate addition using a Tecan Infinite F200 Pro fluorimeter. Control carrier solvent-only wells were included as a reference and %-PP2C activity calculated relative to this control. To validate this assay we tested multiple selective and pan-agonists to ensure that their activity could reliably be detected. […]

[3] = tested on: wild type Columbia Arabidopsis thaliana seeds; experiment: Arabidopsis seed germination assay; assay type: in vivo; details: Arabidopsis thaliana
Method: as §1
To establish if the in vitro potency of Opa translates into improved activity in vivo, we measured the effects of ABA, QB, AMF4, Opa and 2e on Arabidopsis seed germination at a range of concentrations to infer quantitative measures or potency. Methods similar to that described in Example 3 are followed. The percentage of germinated seeds were recorded for each chemical treatment for each concentration in quadruplicate. EC50 values denote the concentrations at which 50% of seeds have been inhibited.

[4] = tested on: panel of recombinant ABA receptors; PP2C HAB1; experiment: receptor-mediated PP2C inhibition assay, dose response, umbelliferone substrate; assay type: biochemical, Arabidopsis; details: 4 nM to 50 μM dose response
Method: Each ligand was tested at concentrations spanning 7 points between 4 nM and 50 μM in triplicate in a reaction buffer containing 100 mM Tris-HCl-pH7.9, 100 mM NaCl, 30 μg/ml BSA, 0.1% 2-mercaptoethanol, 25 nM ΔN-HAB1, 1 mM 4-methylumbelliferyl phosphate, and different recombinant ABA receptors at 50 nM or 300 nM (for PYL9 or PYL11). The substrate was added ˜20 minutes after the other components had been mixed and fluorescence data collected. Control carrier solvent-only wells were included as a reference and %-activity for tested compounds calculated relative to this control. The dose response data (PP2C activity versus agonist concentration) was fit to a log (inhibitor) vs. response-(variable slope) model using non-linear regression to infer the IC50S, using GraphPad Prism 6.0, to yield the IC50 values shown in FIG. 6.
The potency and selectivity of ligands 2b, 2e-f was established by testing their ability to activate multiple ABA receptor subtypes using the fluorescence based phosphasted assay as outlined in example 2 at a range of concentrations (4 nM to 50 μM). In addition, we compared ligand potency to ABA, quinabactin and a recently described fluorinated quinabactin analog AMF4, which is reported to have improved potency in comparison toe quinabactin. To conduct the assays purified recombinant receptors were tested at 50 nM or, in the a cases of PYL9 and PYL11, 300 nM and 25 nM ΔN-HAB1. The PP2C-activity dose response data obtained was fit to a log (inhibitor) vs response-(variable slope) model using non-linear regression to infer the IC50S, using GraphPad Prism 6.0, to yield IC50 values as shown in FIG. 12A. […] Moreover, the installation of a single cyclopropyl group ortho to the nitrile (analog 2e) provided a further boost in potency, dramatically so for all subfamily III receptors, PYL4 and PYL11. […] Furthermore, the installation of a second cyclopropyl substituent (analog 2f) provides an even further boot in activity on subfamily III receptors, which comes at the expense of reduced potency on subfamily I receptors. […] 2f is therefore an unusually overpowered ABA receptor agonist, which we refer to as opabactin (Opa).

Row | activity in the pooled receptor assay [2] | Structure (SMILES) | effect on germination in receptor mutant backgrounds [1] | other results
1 | – | CS(=O)(=O)NC(=O)C1(NC(=O)Cc2ccc(C#N)c(C3CC3)c2)CCCCC1 [2r] | – | activity on PYL2 (in words) (PYL2): modestly activity on PYL2
2 | active | CCCN1C(=O)CCc2cc(NS(=O)(=O)Cc3ccc(C)cc3)ccc21 [quinabactin] | only show diminished activity in the pyr1/pyl1 mutant | –
3 | – | CCCN1C(=O)CCc2cc(NS(=O)(=O)Cc3c(F)c(F)c(C)c(F)c3F)ccc21 [AMF4] | only show diminished activity in the pyr1/pyl1 mutant | –
4 | active | O=S(=O)(NCc1ccccn1)c1ccc(Br)c2ccccc12 [pyrabactin] | – | –
5 | – | N#Cc1ccc(CC(=O)NC2(C(=O)O)CCCCC2)cc1 [2b, 1-[2-(4-cyanophenyl)acetamido]cyclohexane-1-carboxylic acid] | – | potency in receptor-mediated PP2C inhibition (in words) [4]: dramatically improves activity across all receptors tested
6 | – | N#Cc1ccc(CC(=O)NC2(C(=O)O)CCCCC2)cc1C1CC1 [2e, 1-[2-(4-cyano-3-cyclopropylphenyl)acetamido]cyclohexane-1-carboxylic acid] | clearly reduced in the pyr1/pyl1 and pyl8/pyl9 mutant backgrounds | test concentration (twice the EC50 for germination inhibition) ([3]; printed value is twice the EC50, used as test concentration on mutants, read-out: twice the concentrations determined as its EC50 (inhibition of germination) (converted)): 220 nM; potency in receptor-mediated PP2C inhibition (in words) [4]: high potency across all receptors tested

Row | Structure (SMILES) | activity in the pooled receptor assay [2] | effect on germination in receptor mutant backgrounds [1] | other results
7 | CC1=CC(=O)CC(C)(C)[C@@]1(O)/C=C/C(C)=C\C(=O)O [ABA, Abscisic acid] | active | clearly reduced in the pyr1/pyl1 and pyl8/pyl9 mutant backgrounds | EC50 ([3]; read-out: twice the concentrations determined as its EC50 (inhibition of germination)): 600 nM
